Results on 6 compounds are retold here after patent publication US12570657B2, “Mesylate salts of heterocyclic cytokinins, compositions containing these derivatives and use thereof” (UNIVERZITA PALACKEHO V OLOMOUCI, priority 2020, dated 2026).

Assay [1] has as its system G361 (malignant melanoma). In words: In vitro cytotoxicity, Calcein AM assay, G-361. In kind it is cell-based. Particulars: Homo sapiens, 72 h, 3-day Calcein-AM assay. The source says:
(§1) Because toxic compounds adversely affect cell metabolic processes, many standard cytotoxicity assays are based on measuring the rate of metabolism of various artificial substrates. The resulting product is then quantified, for example, by spectrometry. Assays can be easily modified for use in 96-well plates, A microtiter assay based on the quantification of Calcein AM metabolism was used to evaluate the cytotoxicity of cytokinins, for example meta-topolin, ortho-topolin, kinetin, BAP or its mesylate salts, but also a number of other cytokinin mesylate derivatives according to the invention. The test is widely used in drug screening programs and in chemosensitivity testing. In living cells, Calcein AM is enzymatically hydrolyzed and the accumulation of the resulting calcein is manifested by green fluorescence. The following cell lines—RPMI 8226 (multiple myeloma), CEM (T-lymphoblastic leukemia), K562 (chronic myeloid leukemia), HL-60 (promyelocytic, leukemia), MCF-7 (breast adenocarcinoma), HeLa (cervical cancer), G361 (malignant melanoma), HOS (human osteosarcoma) and BJ (human foreskin fibroblasts)—were obtained from the American Type Culture Collection (Manassas, VA, USA). These cells were maintained in standard DMEM or RPMI medium (Sigma, MO, USA) supplemented with heat-inactivated fetal bovine serum (10%) with 2 mM L-glutamine and penicillin-streptomycin (1%) under standard cell culture conditions (37° C., 5% CO2 in a humid environment) and subcultured two or three times a week using a standard trypsinization procedure. Approximately 10,000 cells in 80 μl of medium were seeded in a 96-well microtiter plate. After 12 hours of incubation, the compounds to be tested were added in 20 μl aliquots. Control cultures were treated with DMSO alone. […] Serial, 3-fold dilutions (six in total, peak concentrations in 166 μM incubations) of each compound were tested. After 72 hours of incubation, Calcein AM solution (Molecular Probes) was added to a final concentration of 1 μg/ml and the cells were incubated for another hour. Free calcein fluorescence was then quantified using a Fluoroscan Ascent fluorometer (Microsystems), and the percentage of surviving cells in each well was calculated by dividing the OD obtained from each cell by the exposed cells by the mean OD obtained from control wells×100%, Finally, IC50 values (concentration causing a 50% decrease in cellular esterase activity) were calculated for each compound generated from dose-response curves (Krys̆tof et al., 2005, Bioorg. Med. Chem. Lett. 12, 3283-3286). The IC50 values reported here are averages obtained from at least three independent experiments, where the individual replication values fell within 20% of the average. Growth inhibition was calculated using the following equation: IC50=(mean FDwell exposed to drug−mean FDblank)/(mean FDcontrol well−mean FDblank)×100%.
(§2) Cytoxicity of compounds was tested on panel of cell lines of different histogenetic and species origin.

In assay [2] the test system is MCF-7 (breast adenocarcinoma). In words: In vitro cytotoxicity, Calcein AM assay, MCF7. It is filed as cell-based. Particulars: Homo sapiens, MCF7, 72 h, 3-day Calcein-AM assay.
From the text: (§3) Because toxic compounds adversely affect cell metabolic processes, many standard cytotoxicity assays are based on measuring the rate of metabolism of various artificial substrates. The resulting product is then quantified, for example, by spectrometry. Assays can be easily modified for use in 96-well plates, A microtiter assay based on the quantification of Calcein AM metabolism was used to evaluate the cytotoxicity of cytokinins, for example meta-topolin, ortho-topolin, kinetin, BAP or its mesylate salts, but also a number of other cytokinin mesylate derivatives according to the invention. The test is widely used in drug screening programs and in chemosensitivity testing. In living cells, Calcein AM is enzymatically hydrolyzed and the accumulation of the resulting calcein is manifested by green fluorescence. […] These cells were maintained in standard DMEM or RPMI medium (Sigma, MO, USA) supplemented with heat-inactivated fetal bovine serum (10%) with 2 mM L-glutamine and penicillin-streptomycin (1%) under standard cell culture conditions (37° C., 5% CO2 in a humid environment) and subcultured two or three times a week using a standard trypsinization procedure. Approximately 10,000 cells in 80 μl of medium were seeded in a 96-well microtiter plate. After 12 hours of incubation, the compounds to be tested were added in 20 μl aliquots. Control cultures were treated with DMSO alone. […] After 72 hours of incubation, Calcein AM solution (Molecular Probes) was added to a final concentration of 1 μg/ml and the cells were incubated for another hour.
as §2

For assay [3], the system named is HL-60 (promyelocytic, leukemia). In words: In vitro cytotoxicity, Calcein AM assay, HL60. It is filed as cell-based. The settings on record: Homo sapiens, HL-60, 72 h, 3-day Calcein-AM assay.
From the text: as §3, §2

A further assay deals with HOS (human osteosarcoma). In words: In vitro cytotoxicity, Calcein AM assay, HOS. The settings on record: Homo sapiens, 72 h, 3-day Calcein-AM assay. In kind it is cell-based.
From the text: as §3, §2

For another assay, the system named is NIH-3T3. Nature of the assay: In vitro cytotoxicity, Calcein AM assay, NIH-3T3. The settings on record: Mus musculus, NIH3T3, 72 h, 3-day Calcein-AM assay. In kind it is cell-based.
From the text: as §1, with “Growth inhibition was calculated using the following equation: IC50=(mean FDwell exposed to drug−mean FDblank)/(mean FDcontrol well−mean FDblank)×100%.” left out

The test system of assay [4] is CEM (T-lymphoblastic leukemia). In words: In vitro cytotoxicity, Calcein AM assay, CEM. The settings on record: 72 h, 3-day Calcein-AM assay. In kind it is cell-based.
From the text: as §3, §2

In assay [5] the test system is K562 (chronic myeloid leukemia). Nature of the assay: In vitro cytotoxicity, Calcein AM assay, K-562. It is filed as cell-based. Particulars: Homo sapiens, K562, 72 h, 3-day Calcein-AM assay.
From the text: as §3, §2

Assay [6] deals with cytokinin-dependent tobacco callus. Nature of the assay: Tobacco callus biotest (stimulation of plant cell division). It is filed as cell-based, Nicotiana tabacum L. cv. Wisconsin 38. The settings on record: callus growth at concentration with highest activity; 10^−5 M BAP = 100%. As for the experimental part:
Stimulation effect of the cytokinin mesylates was tested in tobacco callus biotest using cytokinin dependent tobacco callus. Cytokinin-dependent tobacco callus Nicotiana tabacum L. cv. […] Subcultivation was carried out every three weeks. Fourteen days before the bioassay, the callus tissue was transferred to the media without BAP. Biological activity was determined from the increase in fresh callus weight after four weeks of cultivation. Five replicates were prepared for each cytokinin concentration and the entire test was repeated twice. […] Relative activity of the compound at this concentration was calculated (Tab. 15). The activity obtained for 10^−5 M 6-benzylaminopurine (BAP) was postulated as 100%. The cytokinin bases to be tested were dissolved in dimethylsulfoxide (DMSO) and the solution brought up to 10^−3 M with distilled water. The mesylate salts were dissolved directly in distilled water.

pIC50: −log10 of the molar value.

For orientation: pIC50 means the IC50 on a negative log10 scale, so that one unit is a factor of ten. On to `Clc1ccccc1CNc1ncnc2nc[nH]c12` [2ClBAP, 6-(2-chlorobenzylamino)purine], for which the pIC50 was 4.25 in assay [1]; 3.78 in assay [2]; 3.96 in assay [3]; 4.07 with HOS (human osteosarcoma); under 3.78 in the assay on NIH-3T3; 4.23 in assay [4]. For the same compound, the pIC50 in assay [5] was 4.00. Further, in assay [6], the “activity (%) [10^−5 mol · l^−1 BAP = 100%]” value is reported as 93%.

For the compound `Fc1ccccc1CNc1ncnc2nc[nH]c12` [2FBAP, 6-(2-fluorobenzylamino)purine], the pIC50 in assay [1] is 3.97; in assay [2] it was under 3.78; in the assay with HOS (human osteosarcoma), under 3.78; in assay [4] it was 4.01; in assay [5], 3.87.

Turning to `Clc1cccc(CNc2ncnc3nc[nH]c23)c1` [3ClBAP, 6-(3-chlorobenzylamino)purine], the pIC50 in assay [1] was 3.83; in assay [2], under 3.78; in assay [3] it was under 3.78; with HOS (human osteosarcoma) it was under 3.78; in assay [4], under 3.78. Also, the “activity (%) [10^−5 mol · l^−1 BAP = 100%]” value in assay [6] was found to be 94%.

Turning to `Fc1cccc(CNc2ncnc3nc[nH]c23)c1` [3FBAP, 6-(3-fluorobenzylamino)purine], the pIC50 was under 3.78 in assay [1]; 3.79 in assay [2]; under 3.78 in assay [3]; under 3.78 in the assay on HOS (human osteosarcoma); under 3.78 in assay [4]; 3.98 in assay [5].

As for `Fc1ccc(CNc2ncnc3nc[nH]c23)cc1` [4FBAP, 6-(4-fluorobenzylamino)purine], the pIC50 in assay [1] is under 3.78; in assay [2] it was under 3.78; in assay [3] it was 4.23; in the assay on HOS (human osteosarcoma), under 3.78; in assay [4] it was 4.18; in assay [5], under 3.78.

As for `COc1ccc(CNc2ncnc3nc[nH]c23)cc1` [4MeOBAP, 6-(4-methoxybenzylamino)purine], the pIC50 is at most 3.78 in assay [1]; under 3.78 in assay [2]; under 3.78 in assay [3]; under 3.78 in the assay with HOS (human osteosarcoma); under 3.78 with NIH-3T3; under 3.78 in assay [4]. In addition, the pIC50 in assay [5] is under 3.78.
